Marks after values point to notes of the source that are not given here.

This is an account of results in patent US11759411B2, “Non-therapeutic use of a biodegradable hydrocarbon oil” (TOTAL MARKETING SERVICES, priority 2017, dated 2023).

Test [1] relates to HaCaT cells. As to the kind of experiment: H2DCF-DA test, production of ROS after oil then preservative (POE or MIT). The format is cell-based. How it is done:
(§1) The following standards and methods were used to measure the properties hereinabove: • flash point: EN ISO 2719 • density at 15° C.: EN ISO 1185 • viscosity at 40° C.: EN ISO 3104 • aniline point: EN ISO 2977 • boiling point: ASTM D86 • biodegradability: OECD method 306 • refractive index at 20° C.: ASTM D 1218 • vapour pressure: calculated according to methods well known to those skilled in the art Tests for Anti-Wrinkle or Anti-Ageing Cosmetic Applications Preparation of the Tests: • Preparation of the microplates: 24 hours before the incubation with the oils A and B, the HaCaT cells are inoculated with a cell density of 100,000 cells/ml in 96-well microplates (Corning). […]
The cellular effects are evaluated directly on the adherent living cells by cytofluorimetric microtitration (MiFALC tests-Microtitration Fluorimetric Assays on Live Cells). The microplate reader used in the study is the Safire cytometer (Tecan).
The test H2DCF-DA (2′,7′-dihydrodichlorofluoresceine diacetate) is used in order to evaluate the production of reactive oxygen species. […] Thus, an increase in the intensity of fluorescence is combined with an increase in the production of reactive oxygen species (ROS) and by extrapolation with an increase in the oxidative stress in the cells studied.
Preservatives, used as an additive in cosmetic compositions, were evaluated. […]

The test system of test [2] is HaCaT cells. As to the kind of experiment: HOECHST 33342 test, condensation of the chromatin. It counts as cell-based. The conditions noted are these: one hour with oil or CM, then 20 minutes with BAC 8 ppm by weight, HOECHST 33342, HaCat cells. As for the experimental part: as §1, with “(Corning). The microplates are then placed in the incubator at 37° C. In a microplate, each condition was tested at least three times. Each experiment was carried out at least three times independently in order to validate the reproducibility of the results and to carry out statistical analyses. • Incubation of cells with the oils A or B: two durations of incubation were selected for the products to be tested pure: an incubation for fifteen minutes and an incubation for one hour.” for “(Corning).”
The cellular effects are evaluated directly on the adherent living cells by cytofluorimetric microtitration (MiFALC tests-Microtitration Fluorimetric Assays on Live Cells). The microplate reader used in the study is the Safire cytometer (Tecan). […]

For `Cn1sccc1=O` [MIT, methylisothiazolinone], the “Production of ROS” value with HaCaT cells [1] (oil or none, then MIT) is 135 % relative to the CM. Take benzalkonium chloride [CM + BAC]: the “Measurement of the condensation of the chromatin” value in the test with HaCaT cells [2] was 138*** % relative to the CM.

For the compound phenoxyethanol [CM + POE], in the test with HaCaT cells [1] (oil or CM (e.g. 15 minutes) then POE (e.g. 30 minutes, phenoxyethanol 250 μg/mL)), the “Production of ROS” value is on record as 132 % relative to the CM.
